From patent US12291518B2, “Thyroid hormone receptor agonists and use thereof” (Eccogene Inc., priority 2020, dated 2025)

Key:
THR beta-LBD = molecular target: T1, THR beta-LBD (Homo sapiens, UniProt P10828); assay: THR-β Coactivator Peptide Recruitment Assay (LanthaScreen TR-FRET); assay type: biochemical; settings: TR-FRET coactivator recruitment, THR beta-LBD 0.5 nM; for EC50: read-out: THRβ EC50
T1 construct: THR beta-LBD (the final concentration is 0.5 nM) was added to the 384-well assay plate; purchased Invitrogen PV4686
T1 sequence (P10828 217-461 limits assumed): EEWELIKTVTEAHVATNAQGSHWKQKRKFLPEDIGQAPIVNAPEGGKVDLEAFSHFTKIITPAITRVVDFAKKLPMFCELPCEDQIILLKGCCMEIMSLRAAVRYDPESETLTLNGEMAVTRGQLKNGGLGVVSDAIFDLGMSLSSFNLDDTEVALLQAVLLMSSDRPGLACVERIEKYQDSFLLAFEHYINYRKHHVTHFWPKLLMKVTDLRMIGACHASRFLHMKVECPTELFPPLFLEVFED
Outline: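 Agonist-driven coactivator recruitment read as a 520/495 nm TR-FRET emission ratio after 2 h at room temperature. Final concentrations: THR beta-LBD 0.5 nM, fluorescein-SRC2-2 peptide 0.1 nM, terbium anti-GST antibody 2 nM. EC50 from four-parameter dose-response fitting.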

THR alpha-LBD = molecular target: T2, THR alpha-LBD (Homo sapiens, UniProt P10827); assay: THR-α Coactivator Peptide Recruitment Assay (LanthaScreen TR-FRET); assay type: biochemical; settings: TR-FRET coactivator recruitment, THR alpha-LBD 0.25 nM; for EC50: read-out: THRα EC50
T2 construct: except that THR alpha-LBD of a final concentration 0.25 nM was used; purchased Invitrogen PV4687
T2 sequence (P10827 163-410 isoform P10827-2 limits assumed, other chains not shown): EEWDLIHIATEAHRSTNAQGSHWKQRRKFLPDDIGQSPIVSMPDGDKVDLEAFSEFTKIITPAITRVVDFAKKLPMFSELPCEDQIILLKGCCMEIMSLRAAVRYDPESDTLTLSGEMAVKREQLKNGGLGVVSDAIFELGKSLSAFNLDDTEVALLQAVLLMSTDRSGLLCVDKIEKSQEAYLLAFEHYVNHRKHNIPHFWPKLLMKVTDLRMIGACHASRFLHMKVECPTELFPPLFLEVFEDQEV
Outline: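 TR-FRET coactivator recruitment with THR alpha-LBD at 0.25 nM final, Fluorescein-SRC2-2 peptide 0.1 nM and Tb-labeled anti-GST antibody 2 nM; 2 h incubation at room temperature. 520/495 nm emission ratio fitted to a four-parameter sigmoidal curve to give EC50.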

Row | THRβ Emax (THR beta-LBD) | EC50 (THR beta-LBD) [nM] | THRα Emax (THR alpha-LBD) | EC50 (THR alpha-LBD) [nM] | SMILES
1 | B (75~90) | < 2 | A (85~110) | 2 to 200 | O=c1[nH]c(=O)n(-c2cc(Cl)c(Oc3cc(S(=O)(=O)N4CC(F)(F)C4)c(O)cn3)c(Cl)c2)nc1C(F)F [Compound 109, 2-(3,5-dichloro-4-((4-((3,3-difluoroazetidin-1-yl)sulfonyl)-5-hydroxypyridin-2-yl)oxy)phenyl)-6-(difluoromethyl)-1,2,4-triazine-3,5(2H,4H)-dione]
2 | A (90~110) | < 2 | A (85~110) | 2 to 200 | CC(C)NS(=O)(=O)c1cc(Oc2c(Cl)cc(-n3nc(C(F)F)c(=O)[nH]c3=O)cc2Cl)ncc1O [Compound 110, 2-(2,6-dichloro-4-(6-(difluoromethyl)-3,5-dioxo-4,5-dihydro-1,2,4-triazin-2(3H)-yl)phenoxy)-5-hydroxy-N-isopropylpyridine-4-sulfonamide]
3 | A (90~110) | < 2 | A (85~110) | 2 to 200 | O=c1[nH]c(=O)n(-c2cc(Cl)c(Oc3cc(S(=O)(=O)NCC(F)F)c(O)cn3)c(Cl)c2)nc1C(F)F [Compound 111, 2-(2,6-dichloro-4-(6-(difluoromethyl)-3,5-dioxo-4,5-dihydro-1,2,4-triazin-2(3H)-yl)phenoxy)-N-(2,2-difluoroethyl)-5-hydroxypyridine-4-sulfonamide]
4 | A (90~110) | < 2 | A (85~110) | 2 to 200 | CCNS(=O)(=O)c1cc(Oc2c(Cl)cc(-n3nc(C(F)F)c(=O)[nH]c3=O)cc2Cl)ncc1O [Compound 112, 2-(2,6-dichloro-4-(6-(difluoromethyl)-3,5-dioxo-4,5-dihydro-1,2,4-triazin-2(3H)-yl)phenoxy)-N-ethyl-5-hydroxypyridine-4-sulfonamide]
5 | B (75~90) | < 2 | A (85~110) | 2 to 200 | CN(C)S(=O)(=O)c1cc(Oc2c(Cl)cc(-n3nc(C(F)F)c(=O)[nH]c3=O)cc2Cl)ncc1O [Compound 113, 2-(2,6-dichloro-4-(6-(difluoromethyl)-3,5-dioxo-4,5-dihydro-1,2,4-triazin-2(3H)-yl)phenoxy)-5-hydroxy-N,N-dimethylpyridine-4-sulfonamide]
6 | C (<75) | 20 to 100 | C (<40) | > 1000 | O=C(NCC(F)F)C1(NS(=O)(=O)c2cc(Oc3c(Cl)cc(-n4nc(C(F)F)c(=O)[nH]c4=O)cc3Cl)ncc2O)CC1 [Compound 117, 1-((2-(2,6-dichloro-4-(6-(difluoromethyl)-3,5-dioxo-4,5-dihydro-1,2,4-triazin-2(3H)-yl)phenoxy)-5-hydroxypyridine)-4-sulfonamido)-N-(2,2-difluoroethyl)cyclopropane-1-carboxamide]
7 | C (<75) | > 100 | C (<40) | > 1000 | O=C(CNS(=O)(=O)c1cc(Oc2c(Cl)cc(-n3nc(C(F)F)c(=O)[nH]c3=O)cc2Cl)ncc1O)NC1CC1 [Compound 120, N-cyclopropyl-2-((2-(2,6-dichloro-4-(6-(difluoromethyl)-3,5-dioxo-4,5-dihydro-1,2,4-triazin-2(3H)-yl)phenoxy)-5-hydroxypyridine)-4-sulfonamido)acetamide]
8 | A (90~110) | < 2 | A (85~110) | 2 to 200 | O=c1[nH]c(=O)n(-c2cc(Cl)c(Oc3cc(S(=O)(=O)NC4CCC4)c(O)cn3)c(Cl)c2)nc1C(F)F [Compound 123, N-cyclobutyl-2-(2,6-dichloro-4-(6-(difluoromethyl)-3,5-dioxo-4,5-dihydro-1,2,4-triazin-2(3H)-yl)phenoxy)-5-hydroxypyridine-4-sulfonamide]
9 | B (75~90) | < 2 | B (40~85) | 2 to 200 | O=c1[nH]c(=O)n(-c2cc(Cl)c(Oc3cc(S(=O)(=O)NC4CCCC4)c(O)cn3)c(Cl)c2)nc1C(F)F [Compound 124, N-cyclopentyl-2-(2,6-dichloro-4-(6-(difluoromethyl)-3,5-dioxo-4,5-dihydro-1,2,4-triazin-2(3H)-yl)phenoxy)-5-hydroxypyridine-4-sulfonamide]

Further lines, the compound ahead of its results:

Row | SMILES | THRβ Emax (THR beta-LBD) | EC50 (THR beta-LBD) [nM] | THRα Emax (THR alpha-LBD) | EC50 (THR alpha-LBD) [nM]
10 | O=c1[nH]c(=O)n(-c2cc(Cl)c(Oc3cc(S(=O)(=O)N4CC(O)C4)c(O)cn3)c(Cl)c2)nc1C(F)F [Compound 107, 2-(3,5-dichloro-4-((5-hydroxy-4-((3-hydroxyazetidin-1-yl)sulfonyl)pyridin-2-yl)oxy)phenyl)-6-(difluoromethyl)-1,2,4-triazine-3,5(2H,4H)-dione] | B (75~90) | 2 to 20 | B (40~85) | 2 to 200
11 | O=c1[nH]c(=O)n(-c2cc(Cl)c(Oc3cc(S(=O)(=O)N4CC[C@H](O)C4)c(O)cn3)c(Cl)c2)nc1C(F)F [Compound 108, (S)-2-(3,5-dichloro-4-((5-hydroxy-4-((3-hydroxypyrrolidin-1-yl)sulfonyl)pyridin-2-yl)oxy)phenyl)-6-(difluoromethyl)-1,2,4-triazine-3,5(2H,4H)-dione] | B (75~90) | 2 to 20 | B (40~85) | 2 to 200
12 | N#Cc1nn(-c2cc(Cl)c(Oc3cc(S(=O)(=O)NC4CC4)c(O)cn3)c(Cl)c2)c(=O)[nH]c1=O [Compound 114, N-cyclopropyl-2-(2,6-dichloro-4-(6-cyano-3,5-dioxo-4,5-dihydro-1,2,4-triazin-2(3H)-yl)phenoxy)-5-hydroxypyridine-4-sulfonamide] | A (90~110) | < 2 | A (85~110) | 2 to 200
13 | O=C(NC1CCC1)C1(NS(=O)(=O)c2cc(Oc3c(Cl)cc(-n4nc(C(F)F)c(=O)[nH]c4=O)cc3Cl)ncc2O)CC1 [Compound 115, N-cyclobutyl-1-[[2-[2,6-dichloro-4-[6-(difluoromethyl)-3,5-dioxo-1,2,4-triazin-2-yl]phenoxy]-5-hydroxy-4-pyridyl]sulfonylamino]cyclopropanecarboxamide] | C (<75) | 2 to 20 | B (40~85) | > 1000
14 | O=C(NC1CCCC1)C1(NS(=O)(=O)c2cc(Oc3c(Cl)cc(-n4nc(C(F)F)c(=O)[nH]c4=O)cc3Cl)ncc2O)CC1 [Compound 116, N-cyclopentyl-1-((2-(2,6-dichloro-4-(6-(difluoromethyl)-3,5-dioxo-4,5-dihydro-1,2,4-triazin-2(3H)-yl)phenoxy)-5-hydroxypyridine)-4-sulfonamido)cyclopropane-1-carboxamide] | C (<75) | 20 to 100 | B (40~85) | > 1000
15 | O=C(N1CCCC1)C1(NS(=O)(=O)c2cc(Oc3c(Cl)cc(-n4nc(C(F)F)c(=O)[nH]c4=O)cc3Cl)ncc2O)CC1 [Compound 118, 2-(2,6-dichloro-4-(6-(difluoromethyl)-3,5-dioxo-4,5-dihydro-1,2,4-triazin-2(3H)-yl)phenoxy)-5-hydroxy-N-(1-(pyrrolidine-1-carbonyl)cyclopropyl)pyridine-4-sulfonamide] | B (75~90) | > 100 | C (<40) | > 1000
16 | O=C(CNS(=O)(=O)c1cc(Oc2c(Cl)cc(-n3nc(C(F)F)c(=O)[nH]c3=O)cc2Cl)ncc1O)NC1CCC1 [Compound 119, N-cyclobutyl-2-[[2-[2,6-dichloro-4-[6-(difluoromethyl)-3,5-dioxo-1,2,4-triazin-2-yl]-phenoxy]-5-hydroxy-4-pyridyl]-sulfonylamino]-acetamide] | C (<75) | > 100 | C (<40) | > 1000
17 | O=C(NC1CC1)C1(NS(=O)(=O)c2cc(Oc3c(Cl)cc(-n4nc(C(F)F)c(=O)[nH]c4=O)cc3Cl)ncc2O)CCC1 [Compound 121, N-cyclopropyl-1-((2-(2,6-dichloro-4-(6-(difluoromethyl)-3,5-dioxo-4,5-dihydro-1,2,4-triazin-2(3H)-yl)phenoxy)-5-hydroxypyridine)-4-sulfonamido)cyclobutane-1-carboxamide] | C (<75) | > 100 | C (<40) | > 1000
18 | CC1(C)CC(NS(=O)(=O)c2cc(Oc3c(Cl)cc(-n4nc(C(F)F)c(=O)[nH]c4=O)cc3Cl)ncc2O)C1 [Compound 122] | C (<75) | 2 to 20 | B (40~85) | 200 to 1000
19 | N#C[C@H]1C[C@@H](NS(=O)(=O)c2cc(Oc3c(Cl)cc(-n4nc(C(F)F)c(=O)[nH]c4=O)cc3Cl)ncc2O)C1 [Compound 125, N-((1s,3s)-3-cyanocyclobutyl)-2-(2,6-dichloro-4-(6-(difluoromethyl)-3,5-dioxo-4,5-dihydro-1,2,4-triazin-2(3H)-yl)phenoxy)-5-hydroxypyridine-4-sulfonamide] | B (75~90) | 2 to 20 | B (40~85) | 200 to 1000
